According to PubChem BioAssay (NCI):
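Five compound concentrations were applied to cells in 96-well plates for 48 hours; endpoints were derived by simple linear interpolation of the resulting dose-response curve. The concentration for 50% growth inhibition is given as GI50. TGI: total growth inhibition.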

What was measured:
Test in all cases: DTP human tumour cell line panel, 48 h
[1] = system: 786-0 renal
[2] = system: IGROV1 ovarian
[3] = system: K-562 leukemia
[4] = system: MOLT-4 leukemia
[5] = system: OVCAR-3 ovarian
[6] = system: OVCAR-5 ovarian
[7] = system: SK-MEL-5 melanoma
[8] = system: HOP-92 NSCLC
[9] = system: MDA-MB-435
[10] = system: PC-3 prostate

SMILES | TGI [1] [µM] | TGI [2] [µM] | TGI [3] [µM] | TGI [4] [µM] | TGI [5] [µM] | TGI [6] [µM] | TGI [7] [µM] | GI50 [1] [µM] | GI50 [8] [µM] | TGI [8] [µM] | GI50 [2] [µM] | GI50 [9] [µM] | TGI [9] [µM] | GI50 [4] [µM] | GI50 [5] [µM] | GI50 [6] [µM] | GI50 [10] [µM] | TGI [10] [µM] | GI50 [7] [µM] | GI50 [3] [µM]
C=CCCC(O)c1cc(C)c(O)c(C)c1 (stereo not drawn) | > 100 | > 100 | > 100 | > 100 | > 100 | > 100 | > 100 |  |  |  |  |  |  |  |  |  |  |  |  | 
O=C(CCN1CCCC1)Nc1ccc2c(Nc3ccc(F)cc3)c3ccccc3nc2c1 | 2.77 | 3.27 |  | 3.02 | 4.21 | 4.7 | 2.88 | 1.21 | 1.18 | 2.68 | 1.03 | 1.58 | 3 | 0.133 | 1.68 | 1.95 | 1.34 | 3.97 | 1.53 | 
Cn1c(=O)nc2n(-c3ccc(Br)cc3)c3ccccc3nc-2c1=O | 22.3 | 28 | 24 | 28.7 | 7.6 | 26.4 | 4.12 |  |  |  |  |  |  |  |  |  |  |  |  | 
COC1CCCc2c(OC(C)=O)ccc(OC(C)=O)c21 (stereo not drawn) | > 100 | > 100 | > 100 | > 100 | > 100 | > 100 | > 100 |  |  | 34.1 |  |  |  |  |  |  |  |  |  | 
O=c1[nH]c2nc3ccccc3c(=O)n2nc1Cc1ccccc1 | > 100 | > 100 | > 100 | > 100 | > 100 | > 100 | > 100 |  |  |  |  |  |  |  |  |  |  |  |  | 
N#CN1CC[C@@H]2CC3(CCC2C1)OCCO3 (stereo partly drawn) | > 100 | > 100 | > 100 | > 100 | > 100 | > 100 | > 100 |  |  | > 100 |  |  |  |  |  |  |  |  |  | 
Nc1n[n+]([O-])c2ccc(Cl)cc2[n+]1[O-] | > 100 | 25.3 | > 100 | > 100 |  | 79 | 16.5 |  |  |  |  |  | 74.2 |  |  |  |  | > 100 |  | 
Cc1nc(-n2nc(-c3ccccc3)cc2-c2ccccc2)sc1C(=O)CC(=O)C(=O)Nc1ccc(Cl)c(Cl)c1 | > 100 | > 100 | > 100 | > 100 | > 100 | > 100 |  |  |  |  |  |  |  |  |  |  |  |  |  | 
Cc1cccc(NC(=O)c2c(N)[n+]([O-])c3ccccc3[n+]2[O-])c1 | 17.9 | 21.5 | > 100 | 81 | 29.1 | 42.3 | 17 |  |  | 29.5 |  |  |  |  |  |  |  |  |  | 
O=C(n1c2ccccc2c2n[nH]c(=S)nc21)C(F)(F)F | > 100 | > 100 | > 100 | > 100 | > 100 | > 100 | > 100 |  |  | > 100 |  |  |  |  |  |  |  |  |  | 
N[C@H]1CCC[C@@H](O)C1O (stereo partly drawn) | > 100 | > 100 | > 100 | > 100 | > 100 | > 100 | > 100 |  |  |  |  |  | > 100 | > 100 |  |  |  | > 100 |  | 
O=C1NC(c2ccccc2)(c2ccccc2)C(=O)N1CCCCCCN1C(=O)NC(c2ccccc2)(c2ccccc2)C1=O | 49.3 | > 100 | > 100 | > 100 | > 100 | > 100 | 57.9 |  |  | 19.9 |  |  |  |  |  |  |  |  |  | 
Cc1c(C)c2cc3c(=O)c(CCl)coc3c(C)c2oc1=O | > 100 | > 100 | > 100 | > 100 | > 100 | > 100 | > 100 |  |  |  |  |  |  |  |  |  |  |  |  | 
CNC(=O)[C@H](Cc1c[nH]c2ccccc12)NC(=O)[C@@H](CC(=O)NO)CC(C)C | > 25 | > 25 | > 25 | > 25 | > 25 | > 25 | > 25 | > 25 |  |  | > 25 | > 25 | > 25 | > 25 | > 25 | > 25 | > 25 | > 25 | > 25 | 21.6
CCN(Cc1ccc(Cl)c(Cl)c1)c1ccc2nc(N)nc(N)c2c1C | 1.27 | 1.58 |  |  |  | 2.13 | 1.45 | < 0.01 | 0.24 | 1.82 | < 0.01 | < 0.01 | 1.49 |  |  | 0.209 | 0.0284 | 3.16 | < 0.01 | 
CC(=O)/C=C1\CC(=O)N(C)c2ccccc2N1 | > 100 | > 100 | > 100 | > 100 | > 100 | > 100 | 2.05 |  |  | > 100 |  |  |  |  |  |  |  |  |  | 
CN(C)CCCNc1ccnc2c([N+](=O)[O-])cccc12 | > 100 |  |  | 66.7 | > 100 |  |  |  |  |  |  |  |  |  |  |  |  |  |  | 
CC(=O)OC1(Sc2ccccc2)CC2[C@H]3COC(C)(C)O[C@H]3CC[C@@]2(C)CC1=O (stereo partly drawn) | > 100 | > 100 | > 100 | > 100 | > 100 | > 100 | 70 |  |  | 86.1 |  |  |  |  |  |  |  |  |  | 
CCOC(=O)c1ccc(N=Cc2ccc(N(CCC#N)S(=O)(=O)c3ccccc3)cc2C)cc1 | > 100 | > 100 | > 100 | > 100 | > 100 | > 100 | > 100 |  |  |  |  |  |  |  |  |  |  |  |  | 
O=NNc1ccc(-c2ccccc2)cn1 | > 39.2 | > 81.3 | > 100 |  | 53.1 | > 77.4 | 31.7 |  |  | 8.45 |  |  | 30.9 |  |  |  |  | 61.2 |  | 
COc1ccc2c(c1OC)C(=O)C2 | > 100 |  |  | > 100 |  |  | > 100 |  |  |  |  |  |  |  |  |  |  |  |  | 
CC(C)(C)c1cc(C2c3cc4c(cc3OC(O)(CO)C2C(=O)O)OCO4)cc(C(C)(C)C)c1O (stereo not drawn) (tested in a mixture with another compound) | 33.8 | 48.6 | 29.6 | 20.3 | 18.9 |  | 23.9 |  |  | 43.7 |  |  |  |  |  |  |  |  |  | 
COc1ccc2nc3cc(Cl)ccc3c(Sc3ccc(N)cc3)c2c1 | 19.8 | 32 | 13.8 | 9.65 | 21.5 | 34.8 | 25.3 |  |  | 39.7 |  |  |  |  |  |  |  |  |  | 
COc1ccc2c(=O)c(-c3cc(OC)c(OC)cc3OC)coc2c1 | > 100 | > 100 | > 100 | > 100 | 15.3 | > 100 | > 100 |  |  |  |  |  |  |  |  |  |  | > 100 |  | 
